In general, log P refers to a log measure of how a compound divides between an organic and an aqueous phase. The AUC(0-inf) is total exposure, with the tail of the curve extrapolated. A higher AUC(0-inf) goes with high exposure. One may read the AUC(0-t) as exposure summed from dosing to a finite time, without extrapolation to infinity. The low end stands for less exposure, the high end for more exposure. The Cmax is the peak of the concentration-time curve. For orientation: Tmax means the time at which the peak concentration occurs. As usually defined, the half-life is how long it takes for the measured level to halve. Higher therefore signals slow loss.

The text below walks through data of US11197828B2, “Solid oral dosage form of lipophilic compounds” (SOLURAL PHARMA APS, priority 2014, dated 2021).

Marks after values point to notes of the source that are not given here. Bounds are passed on as bounds.

The conditions of series [1]: cited from earlier work.
For series [2] the following is noted: oral 60 mg paclitaxel equivalents/animal, fasted male beagle dogs (N = 4).
Description: (§1) The study was a randomized, balanced, single dose, parallel group study in Beagle dogs comparing pharmacokinetics in fasted state of capsules containing C11-paclitaxel and DHA-paclitaxel, respectively in SEDDS formulation S2 (see Table 1).
(§2) The strength of each capsule was 12.5 mg of paclitaxel equivalents for the C-11 paclitaxel capsule and 10 mg of paclitaxel equivalents for the DHA-paclitaxel. The total oral dosage provided was 75 mg calculated as parent compound for paclitaxel and C11-paclitaxel, respectively and 60 mg calculated as parent compound for DHA-paclitaxel.
(§3) The dogs were deprived of food from late afternoon the day prior dosing. The capsule was put directly on the aditus laryngis of the dog to ensure that the capsule is not chewed but swallowed whole. All dogs received totally 100 ml of water immediately following the dosing.
(§4) Blood samples (approximately ˜0.5 mL) were taken from each animal at each dosing occasion on 10 time points up to 24 hours after dosing including a pre-dose.
(§5) The pharmacokinetic parameters calculated are i.e. total exposure, or area under the concentration-time curve (AUC0-inf, AUC0-t), peak exposure (Cmax), time to peak exposure (Tmax), terminal half-life t1/2 and the conversion rate from prodrug to parent.
A further series is described as follows: in vivo. The following applies: male, beagle, dog, blood, po, 75 mg.
The conditions of series [3]: excessive first pass metabolism; cited from earlier work.

Description for in vivo: as §1, §2, §3, §4, §5

As for `CC(=O)O[C@H]1CC[C@@]2(C)C(=CC[C@@H]3[C@@H]2CC[C@]2(C)C(c4cccnc4)=CC[C@@H]32)C1` [Abiraterone acetate], the “log P” value in series [1] was 5.1.

As to `C[C@@H](O)[C@@H]1NC(=O)[C@H](CCCCN)NC(=O)[C@@H](Cc2c[nH]c3ccccc23)NC(=O)[C@H](Cc2ccccc2)NC(=O)[C@@H](NC(=O)[C@H](N)Cc2ccccc2)CSSC[C@@H](C(=O)N[C@H](CO)[C@@H](C)O)NC1=O` [Octreotide], the “log P” value in series [1] is “around 1”.

As to `CC/C=C\C/C=C\C/C=C\C/C=C\C/C=C\C/C=C\CCC(=O)O[C@@H](C(=O)O[C@H]1C[C@@]2(O)[C@@H](OC(=O)c3ccccc3)[C@@H]3[C@]4(OC(C)=O)CO[C@@H]4C[C@H](O)[C@@]3(C)C(=O)[C@H](OC(C)=O)C(=C1C)C2(C)C)[C@@H](NC(=O)c1ccccc1)c1ccccc1` [Paclitaxel-DHA, paclitaxel docosahexaenoate], in series [2] (conversion prodrug to parent), the “AUC0-t(parent)/AUC0-t(prodrug)” value is on record as 22.3%. Moreover, in series [2], the “AUC0-t of paclitaxel (parent)” value turned out to be 73.3 ng·h/mL, the AUC0-t of prodrug is listed as 402^e) hr * ng/mL, the “AUC0-∞ of paclitaxel (parent)” value was 97.2 ng·h/mL and the “AUC0-∞ of prodrug” value is given as 643^f) hr * ng/mL. In series [2], the “Cmax of paclitaxel (parent)” value came out at 10.4 ng/mL, the Cmax of prodrug is listed as 63.8^d) ng/mL, the “Tmax of paclitaxel (parent)” value came out at 2.25 h and the Tmax of prodrug is 4.50 h. In series [2], the “t1/2 of paclitaxel (parent)” value worked out at 11.6 h and the t1/2 of prodrug is 6.33 h.

Take `CC(=O)O[C@H]1C(=O)[C@@]2(C)[C@H]([C@H](OC(=O)c3ccccc3)[C@]3(O)C[C@H](OC(=O)[C@H](O)[C@@H](NC(=O)c4ccccc4)c4ccccc4)C(C)=C1C3(C)C)[C@]1(OC(C)=O)CO[C@@H]1C[C@@H]2O` [Paclitaxel]: in “in vivo”, the AUC(0-inf) stood at 973 ng·h/mL, the exposure AUC(0-t) is 771 ng·h/mL, the Cmax was 148 ng/mL and the Tmax turned out to be 2.5 h. Also, in the series “in vivo”, the half-life was 13.7 h.

For `CCCCCCCCCCC(=O)O[C@H]1CC[C@H]2[C@@H]3CCC4=CC(=O)CC[C@]4(C)[C@H]3CC[C@]12C` [Testosterone undecanoate], the “log P” value in series [1] was “about 8.7”.

As for `CC(C)c1cccc(C(C)C)c1O` [propofol, 2,6-diisopropylphenol], the oral bioavailability in series [3] is given as at most 3%.
